Assay results as given in patent US10174056B2, “Substituted pyrrolo[2,3-d]pyrimidines as janus kinase inhibitors” (WUXI FORTUNE PHARMACEUTICAL CO., LTD, priority 2015, dated 2019).

What was measured:
JAK1 = target: T1, JAK1 (Homo sapiens, UniProt P23458); assay: Test for in vitro activity of JAK1 kinase (LANCE Ultra ULight peptide); assay type: biochemical; conditions: recombinant human JAK1, 38 uM ATP, 90 min
T1 construct: purchased Life technology
Procedure: (§1) Test for in vitro activity of Jak1, Jak2, and Jak3 Kinase
(§2) Recombinant human […] of JAK1, JAK2 and JAK3 were purchased from Life technology. LANCE Ultra ULight™-JAK-1 (Tyr1023) peptide and LANCE Eu-W1024 Anti-phosphotyrosine (PT66) were purchased from PerkinElmer. Multimode ELISA, Envison(PerkinElmer) reader was used.
(§3) The test compound was diluted according to gradient of three times concentration with a final concentration of from 10 uM to 0.17 nM at 11 concentrations totally, each concentration with two complex holes, and the content of DMSO in the detection was 1%.
(§4) 2 nM of JAK1 Protein kinase, 50 nM of LANCE Ultra ULight™-JAK-1(Tyr1023) peptide, 38 uM of ATP, 50 mM of HEPES (pH 7.5), 10 mM of MgCl2, 1 mM of EGTA, 2 mM of DTT, 0.01% BRIJ-35. Checker board is White Proxiplate 384-Plus plate (PerkinElmer). The reaction was carried out at room temperature for 90 min and the reaction system was 10 ul.
(§5) 10 ul detection reagent was added to reaction plate, wherein the final concentration of LANCE Eu-W1024 Anti-phosphotyrosine (PT66) was 2 nM, the final concentration of EDTA was […], incubated at room temperature for 60 min, with Envison reader.
(§6) The reading was converted to inhibition ratio (%) by the following formula: the inhibition ratio (%)=([…])/(Max−Min)×100%.

JAK2 = target: T2, JAK2 (Homo sapiens, UniProt O60674); assay: Test for in vitro activity of JAK2 kinase (LANCE Ultra ULight peptide); assay type: biochemical; conditions: recombinant human JAK2, 12 uM ATP, 60 min
T2 construct: purchased Life technology
Procedure: as §1, §2, §3
as §4, with “0.02 nM” for “2 nM”, “of JAK2” for “of JAK1”, “peptide, 12” for “peptide, 38”, “for 60” for “for 90”
as §5, §6

[1] = Pharmacokinetic (PK) test in mice; assay type: in vivo, DBA/1 mice; conditions: for bioavailability / AUC(0-inf) / Cmax / half-life: mouse, plasma, po, DBA/1 mice, mean; for bioavailability: gavage vs tail vein injection; for AUC(0-inf) / Cmax / half-life: tail vein injection and gavage
Procedure: Pharmacokinetic (PK) Test
The clear solution obtained by dissolving the test compound was respectively administrated by tail vein injection and gavage into the mice DBA/1 mice (overnight fasting, 7 to 8 weeks old). After administration of the test compound, the mice in the vein injection group at 0.083, 0.25, 0.5, 1, 2, 4, 8 and 24 hours, and gavage group at 0.25, 0.5, 1, 2, 4, 8 and 24 hours, blood is collected from the mandibular vein and centrifuged to obtain plasma. The plasma concentration was determined by LC-MS/MS. The pharmacokinetic parameters were calculated by non-compartmental model linear logarithmic trapezoid method with using WinNonlin™ Version 6.3 pharmacokinetic software.

[2] = test system: rat adjuvant arthritis model; assay: Rat adjuvant-induced arthritis model efficacy test; assay type: in vivo; conditions: Lewis rats, oral; for AUC (%): two weeks of administration from day 13; for arthritis inhibitory activity (in words): swollen foot volume and score
Procedure: Rat Adjuvant-Induced Arthritis Model Efficacy Test
The effect of the compounds of the present invention on the treatment of arthritis was verified by rat adjuvant arthritis models.
Female, Lewis rats with body weight 160-180 g were anesthetized with isoflurane and was injected with 0.1 ml of mycobacterium tuberculosis suspension subcutaneously in the left posterior foot. After modeling for 13 days, the corresponding test compound was administrated, such as that the rats were respectively administrated with 1 mpk, 3 mpk, 10 mpk of the test compound WX614, 10 mpk of the test compound WX552, and 10 mpk of the test compound WX591 dissolved in a mixed solvent of DMSO/PEG400/H2O, and orally administered to female Lewis rats (10 rats in each dose group). Two weeks after continuous administration, the state of the rats was observed and the volume of the swollen foot was recorded and scored.

[3] = test system: mouse collagen-induced arthritis model; assay: Mouse collagen-induced arthritis model efficacy test; assay type: in vivo, DBA/1 male mice; conditions: CIA mice, oral, 2 weeks
Procedure: Mouse Collagen-Induced Arthritis Model Efficacy Test
The effect of the compounds of the present invention on the treatment of arthritis was verified by the mouse collagen-induced arthritis model.
The DBA/l male mice were selected and injected subcutaneously with the emulsions of collagen and Freund's complete adjuvant at base of tail on day 0 and day 21, and on day 29 the mice was divided into groups. The compound WX6144 (3 mpk, 10 mpk, 30 mpk) was dissolved in DMSO/PEG400/H2O [5/20/75 (v/v/v)] and administered orally to CIA mice (Shanghai SLAC Laboratory Animal Co., Ltd, 10 mice in each dose group), and the mice were continuously administrated for 2 weeks, the weight of mice were recorded and the arthritis of mice was clinically scored.

T1 sequence (P23458 whole entry): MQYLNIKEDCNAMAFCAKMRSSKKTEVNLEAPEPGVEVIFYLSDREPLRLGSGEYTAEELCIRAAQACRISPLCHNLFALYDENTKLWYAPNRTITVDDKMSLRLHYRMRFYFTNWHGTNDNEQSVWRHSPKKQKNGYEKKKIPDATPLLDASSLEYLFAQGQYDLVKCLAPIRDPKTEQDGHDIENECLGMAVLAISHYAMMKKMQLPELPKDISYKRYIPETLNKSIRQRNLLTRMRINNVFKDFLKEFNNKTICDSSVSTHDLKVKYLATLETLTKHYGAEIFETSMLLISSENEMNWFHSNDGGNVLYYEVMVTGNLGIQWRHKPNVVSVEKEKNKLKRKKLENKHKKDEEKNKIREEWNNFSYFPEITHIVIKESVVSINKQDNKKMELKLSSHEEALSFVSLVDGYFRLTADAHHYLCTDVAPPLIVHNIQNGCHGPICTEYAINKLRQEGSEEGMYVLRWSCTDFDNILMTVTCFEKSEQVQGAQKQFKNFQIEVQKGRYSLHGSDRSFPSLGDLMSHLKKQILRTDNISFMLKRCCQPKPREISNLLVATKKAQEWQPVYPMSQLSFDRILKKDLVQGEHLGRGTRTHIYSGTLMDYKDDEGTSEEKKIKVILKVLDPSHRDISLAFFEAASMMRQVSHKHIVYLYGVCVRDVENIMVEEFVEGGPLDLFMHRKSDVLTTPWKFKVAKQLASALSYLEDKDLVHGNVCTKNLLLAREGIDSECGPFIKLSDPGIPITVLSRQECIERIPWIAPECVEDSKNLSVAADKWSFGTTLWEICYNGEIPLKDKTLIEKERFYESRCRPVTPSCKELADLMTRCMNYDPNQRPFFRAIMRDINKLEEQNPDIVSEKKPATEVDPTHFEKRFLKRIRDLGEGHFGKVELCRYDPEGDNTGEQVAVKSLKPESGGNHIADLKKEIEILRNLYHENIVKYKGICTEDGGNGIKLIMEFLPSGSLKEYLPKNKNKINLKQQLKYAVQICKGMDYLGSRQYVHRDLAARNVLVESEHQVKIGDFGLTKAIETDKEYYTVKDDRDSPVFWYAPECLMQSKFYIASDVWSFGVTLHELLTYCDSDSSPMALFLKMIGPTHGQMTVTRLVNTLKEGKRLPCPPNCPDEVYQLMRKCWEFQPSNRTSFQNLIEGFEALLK
T2 sequence (O60674 whole entry): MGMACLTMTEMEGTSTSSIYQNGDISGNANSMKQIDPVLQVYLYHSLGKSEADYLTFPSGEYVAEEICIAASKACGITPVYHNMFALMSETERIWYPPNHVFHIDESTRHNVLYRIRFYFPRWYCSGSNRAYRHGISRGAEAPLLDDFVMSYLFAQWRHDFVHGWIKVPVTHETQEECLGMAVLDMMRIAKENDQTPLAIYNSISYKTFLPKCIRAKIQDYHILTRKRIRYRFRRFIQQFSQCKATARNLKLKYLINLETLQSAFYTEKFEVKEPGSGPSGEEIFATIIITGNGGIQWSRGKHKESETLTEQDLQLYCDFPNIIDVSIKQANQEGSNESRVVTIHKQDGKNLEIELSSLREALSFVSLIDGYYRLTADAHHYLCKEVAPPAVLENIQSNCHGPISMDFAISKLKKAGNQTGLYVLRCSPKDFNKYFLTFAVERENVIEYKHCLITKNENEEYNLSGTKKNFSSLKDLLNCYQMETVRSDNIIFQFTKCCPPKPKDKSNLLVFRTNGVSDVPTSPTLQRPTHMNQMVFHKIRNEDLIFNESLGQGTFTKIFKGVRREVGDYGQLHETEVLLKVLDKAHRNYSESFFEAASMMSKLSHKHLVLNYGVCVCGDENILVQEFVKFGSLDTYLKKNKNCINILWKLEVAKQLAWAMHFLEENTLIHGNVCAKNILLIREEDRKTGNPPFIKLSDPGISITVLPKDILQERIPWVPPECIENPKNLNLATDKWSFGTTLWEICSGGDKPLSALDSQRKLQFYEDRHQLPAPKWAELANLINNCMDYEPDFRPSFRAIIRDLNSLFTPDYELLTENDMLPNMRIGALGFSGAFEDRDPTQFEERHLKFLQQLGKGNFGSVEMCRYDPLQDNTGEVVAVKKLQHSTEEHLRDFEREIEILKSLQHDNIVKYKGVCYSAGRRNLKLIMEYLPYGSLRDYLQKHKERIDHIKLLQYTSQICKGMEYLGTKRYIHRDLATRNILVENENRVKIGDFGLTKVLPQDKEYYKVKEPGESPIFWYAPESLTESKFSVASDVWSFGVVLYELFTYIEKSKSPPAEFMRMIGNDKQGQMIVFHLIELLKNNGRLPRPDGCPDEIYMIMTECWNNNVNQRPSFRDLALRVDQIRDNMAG

Structure (SMILES) | IC50 (JAK1) [µM] | IC50 (JAK2) [µM] | further results
CN(c1ncnc2[nH]ccc12)C1CCn2cc(CC#N)nc2C1 (single isomer, unassigned) [WX612, (S or R) 2-[7-[methyl(7H-pyrrolo[2,3-d]pyrimidine-4-yl)amino]-5,6,7,8-tetrahydroimidazo[1,2-a]pyridine-2-yl]acetonitrile] | > 1 | > 1 | 
CN(c1ncnc2[nH]ccc12)C1CCn2cc(CC#N)nc2C1 (racemic) [WX552, 2-[7-[methyl(7H-pyrrolo[2,3-d]pyrimidine-4-yl)amino]-5,6,7,8-tetrahydroimidazo[1,2-a]pyridine-2-yl]acetonitrile] | 0.01 to 0.1 | 0.1 to 1 | oral bioavailability and exposure in mice (in words) [1]: good oral bioavailability and higher exposure; bioavailability [1]: 74.4%; AUC(0-inf) [1]: 11.4 µM·h; Cmax [1]: 3.72 µM; half-life [1]: 1.18 h; AUC (%) ([2]; 10 mg/kg): 31.7%; arthritis inhibitory activity (in words) [2]: good arthritis inhibitory activity
CN(c1ncnc2[nH]ccc12)C1CCn2cc(C#N)nc2C1 (racemic) [WX591, 7-[methyl-[7 hydropyrrolo[2,3-d]pyrimidine-4-yl]amino]-5,6,7,8-tetrahydroimidazo [1,2-a]pyridine-2-nitrile] | 0.01 to 0.1 | 0.1 to 1 | oral bioavailability and exposure in mice (in words) [1]: good oral bioavailability and higher exposure; bioavailability [1]: 87%; AUC(0-inf) [1]: 10.5 µM·h; Cmax [1]: 3.02 µM; half-life [1]: 2.26 h; AUC (%) ([2]; 10 mg/kg): 44.7%; arthritis inhibitory activity (in words) [2]: good arthritis inhibitory activity
CN(c1ncnc2[nH]ccc12)C1CCn2cc(C(=O)NC3CC(F)(F)C3)nc2C1 (centres unmarked) [WX593, N-(3,3-difluorocyclobutyl)-7-[methyl(7H-pyrrolo[2,3-d]pyrimidine-4-yl]amino]-5,6,7,8-tetrahydroimidazo [1,2-a]pyridine-2-carboxamide] | > 1 | > 1 | 
CN(c1ncnc2[nH]ccc12)C1CCn2cc(CO)nc2C1 (centres unmarked) [WX551] | 0.1 to 1 | > 1 | 
CN(c1ncnc2[nH]ccc12)C1CCn2cc(CNS(C)(=O)=O)nc2C1 (centres unmarked) [WX606, N-((7-(methyl-(7H-pyrrolo[2,3-d]pyrimidine-4-yl)amine)-5,6,7,8-tetrahydroimidazo[1,2-a]pyridine-2-yl)methyl)methanesulfonamide] | 0.1 to 1 | > 1 | 
CN(c1ncnc2[nH]ccc12)C1CCn2cc(CC#N)nc2C1 (single isomer, unassigned) [WX613, (R or S)2-[7-[methyl(7H-pyrrolo[2,3-d]pyrimidine-4-yl)amino]-5,6,7,8-tetrahydroimidazo [1,2-a]pyridine-2-yl]acetonitrile] | 0.01 to 0.1 | 0.1 to 1 | 
CNCc1cn2c(n1)CC(N(C)c1ncnc3[nH]ccc13)CC2 (centres unmarked) [WX605, N-methyl-N-[2-(methylaminomethyl)-5,6,7,8-tetrahydroimidazo[1,2-a]pyridine-7-yl]-7H-7H-pyrrolo[2,3-d]pyrimidine-4-amine] | > 1 | > 1 | 
CN(c1ncnc2[nH]ccc12)[C@@H]1CCn2cc(C#N)nc2C1 (single isomer, unassigned) [WX615, (R or S) 7-[methyl-[7 hydropyrrolo[2,3-d]pyrimidine-4-yl]amino]-5,6,7,8-tetrahydroimidazo [1,2-a]pyridine-2-nitrile] | > 1 | > 1 | 
CCOC(=O)c1cn2c(n1)CC(N(C)c1ncnc3[nH]ccc13)CC2 (centres unmarked) [WX550, ethyl 7-[methyl(7H-pyrrolo[2,3-d]pyrimidine-4-yl)amino]-5,6,7,8-tetrahydroimidazo[1,2-a]pyridine-2-carboxylate] | 0.1 to 1 | > 1 | 
CN(c1ncnc2[nH]ccc12)C1CCn2cc(C(=O)NCC#N)nc2C1 (centres unmarked) [WX581] | 0.1 to 1 | > 1 | 
CN(c1ncnc2[nH]ccc12)C1CCn2cc(C(=O)NCCS(C)(=O)=O)nc2C1 (centres unmarked) [WX592] | > 1 | > 1 | 
CN(c1ncnc2[nH]ccc12)C1CCn2cc(C(=O)NCC(F)(F)F)nc2C1 (centres unmarked) [WX579] | 0.1 to 1 | > 1 | 
CNC(=O)c1cn2c(n1)CC(N(C)c1ncnc3[nH]ccc13)CC2 (centres unmarked) [WX604] | 0.1 to 1 | > 1 | 
CN(c1ncnc2[nH]ccc12)C1CCn2cc(C(=O)NCC(F)F)nc2C1 (centres unmarked) [WX580] | 0.1 to 1 | > 1 | 
CN(c1ncnc2[nH]ccc12)[C@H]1CCn2cc(C#N)nc2C1 (single isomer, unassigned) [WX614, (S or R) 7-[methyl-[7 hydropyrrolo[2,3-d]pyrimidine-4-yl]amino]-5,6,7,8-tetrahydroimidazo[1,2-a]pyridine-2-nitrile] | ≤ 0.01 | 0.01 to 0.1 | oral bioavailability and exposure in mice (in words) [1]: good oral bioavailability and higher exposure; bioavailability [1]: 73.9%; AUC(0-inf) [1]: 10.2 µM·h; Cmax [1]: 3.09 µM; half-life [1]: 1.76 h; AUC (%) ([3]; 3 mg/kg): 42.4%; AUC (%) ([3]; 10 mg/kg): 51.3%; AUC (%) ([3]; 30 mg/kg): 82.5%; therapeutic effect on mouse rheumatoid arthritis (in words) ([3]; clinical score): significant therapeutic effect; AUC (%) ([2]; 1 mg/kg): 20.2%; AUC (%) ([2]; 3 mg/kg): 50.2%; AUC (%) ([2]; 10 mg/kg): 61.8%; arthritis inhibitory activity (in words) [2]: good arthritis inhibitory activity
